Measurements published in ChEMBL document CHEMBL3507680, “University of Dundee, Gates Library screen for HepG2 cell viability”.

Assay: Human HepG2 cell viability assay in 384 well format
Type: toxicity, cell-based
Set-up: dose 125 nL, time 70.5 hour; cytotoxicity at 70.5 h: concentration not given beside the values
Settings: HepG2 cells, read-out: Inhibition

Compound	cytotoxicity at 70.5 h [%]
COCCN1CCC(CN(CC2CCCO2)C(=O)CCNC(C)=O)CC1 (configuration not stated)	-3.63
COc1ccc(Cl)cc1NC(=O)CNc1ccn(CC(N)=O)n1	20.1
CN(Cc1nc(C2CC2)no1)C1CCS(=O)(=O)C1 (configuration not stated)	-4.77
NC(=O)C1CCN(C(=O)c2cc(-n3cnnn3)ccc2Cl)CC1	-14.1
CCc1nc(NC(=O)N(C)Cc2ccoc2)nn1C	-1.12
Cc1nc(CSCCC(=O)NCc2ccc(-n3cncn3)nc2)cs1	24.6
Cc1cc(N2CCC(N(C)Cc3cccnc3)C2=O)n(C)n1 (configuration not stated)	13.5
COc1ccccc1CN1CC[C@H](c2nnc(-c3cncn3C)o2)C1	-1.04
CCCc1nc(N2CC[C@@H](c3ccc4c(c3)OCO4)[C@H](O)C2)no1	-9.08
COc1ccccc1CN(CCCn1ccnc1)CC1CCOC1 (configuration not stated)	-4.43
CSCc1nc(CNC(=O)C2CCCN(C(=O)N(C)C)C2)cs1 (configuration not stated)	-7.03
CC(C)N(Cc1nccn1C)C(=O)c1cc(Cl)c[nH]c1=O	-6.81
CCN1CCN(c2ccccc2NC(=O)N(C)C2CCSC2)CC1 (configuration not stated)	-13.8
CS(=O)(=O)c1cccc(C(=O)NCCCN2CCc3ccccc3C2)c1	19.1
O=C(C1CC(c2ccccc2)=NO1)N1CCc2ccccc21 (configuration not stated)	28.5
CCn1cc(C(=O)NCC(OC)c2cccc(Cl)c2)cn1 (configuration not stated)	-2.35
c1cncc(-c2nnc([C@H]3CCN(CC4CC4)C3)o2)c1	8.27
O=C(O)c1ccnc(-c2ccnc(NCCc3nc4c(s3)CCC4)n2)c1	-6.73
COc1ccccc1N1CCN(C(=O)Cn2nccc2C)CC1(C)C	-3.69
c1cc(CN2CCc3nc(N4CCOCC4)nc(NC4CC4)c3C2)co1	-10.6
Cc1cc(C(N)=O)c(N2C[C@@H](C)[C@@](C)(O)C2)nc1C	-7.31
O=C(CC1CC1)N1C[C@H]2CN(CC3CC3)C(=O)[C@H]2C1	-1.89
Cc1nc(CN2CCN(C(=O)CC(C)(C)c3ccccc3)CC2)no1	-5.37

Compound	cytotoxicity at 70.5 h [%]
CNC(=O)[C@@H]1COC[C@H]2CN(C(=O)COc3ccccc3)C[C@H]21	-1.14
CCOC1CCCN(C(=O)c2nn(-c3ccccc3F)cc2O)C1 (configuration not stated)	-3.95
COCCN1C[C@@H](C)[C@@]2(COCCN(C(=O)c3cccs3)C2)C1	1.58
CCOC(=O)N1CCN(C(=O)c2cc(-c3ccc(C)cc3)on2)CC1	5.24
COC(=O)c1ccc(S(=O)(=O)NCC(C)(O)c2cccs2)cc1 (configuration not stated)	-9.34
COCc1cnc2n1CCN(S(=O)(=O)c1c(C)nn(C)c1C)C2C (configuration not stated)	29
CCN(C(C)=O)C1CCN(c2nccc(CCC(F)(F)F)n2)C1 (configuration not stated)	-22.6
COCCN1CC(=O)N2CC[C@@H](O)C[C@H]2C1=O	28.2
Cc1c(CN2CCc3[nH]cnc3C2C(=O)O)[nH]c2ccc(F)cc12 (configuration not stated)	-20.3
O=C(CO[C@@H]1CC[C@H]2[C@H]1OCCN2c1ncccn1)N1CCCC1	-0.322
Cc1cnc(CN2CCCC2c2noc(C3CC3)n2)cn1 (configuration not stated)	-6.3
CN(C)C(=O)CC1CC2(CCN(Cc3cccs3)CC2)c2ccccc21 (configuration not stated)	-20
Cc1n[nH]c(C)c1CCCN(C)c1cc(N(C)C)ncn1	6.66
CN1CCCCC1c1cncc(Cl)n1 (configuration not stated)	-0.934
CNS(=O)(=O)c1ccc(C(=O)N2CCCC(n3cccn3)C2)cc1 (configuration not stated)	-8.29
Cc1ccc2c(n1)N(Cc1cccnc1)CCN(C(=O)C1CC1)C2	11.2
Cn1cc(C(=O)N[C@@H]2CN(Cc3ccc(F)cc3)[C@@H]3CCCO[C@@H]32)cn1	-4.56
CNC(=O)CNC1CC2(CCN(c3ncccn3)CC2)c2ccccc21 (configuration not stated)	-9.1
CCc1nc2n(n1)CC(NCc1cc(OC)c3c(c1)OCO3)CC2 (configuration not stated)	1.22
Cc1cc(F)cc(S(=O)(=O)NC(=O)CCc2cncc(F)c2)c1	-4.33
O=C(O)c1ccccc1-n1cnc(CN2CCc3ccccc3C2)c1	27.7
CN1CCC/C1=N\S(=O)(=O)c1ccc(NC(=O)c2ccco2)cc1	11.9
COc1ccc(C(N)=O)cc1NCc1ncc(-c2cccs2)o1	-14

Compound	cytotoxicity at 70.5 h [%]
CN1CCC2(CCCN(C(=O)c3cncn3C)C2)CC1	-7.82
Cn1cccc1C(O)CNS(=O)(=O)c1ccccc1Br (configuration not stated)	-0.453
Cn1ccc(C2CCCCCN2C(=O)c2cccnc2)n1 (configuration not stated)	-2.46
COCC1COCCC12CCN(C(=O)Cc1cccc(OC)c1)CC2 (configuration not stated)	-11.4
CCN1CCCC(O)(CNCc2ccccc2F)C1 (configuration not stated)	12.4
CN(C)C(=O)CN1CCC2(CC1)CN(S(C)(=O)=O)Cc1ccccc1O2	-4.65
O=C(COc1coc(CN2CCOCC2)cc1=O)Nc1ccc(Cl)cc1	-17.6
O=C([C@H]1CCCO1)N1CCc2ncnc(NC3CC3)c2CC1	-6.76
COc1c(CNCCNC(=O)c2ccc(C)c(F)c2)c(C)nn1C	-4.84
CCS(=O)(=O)c1ncc(CN(C)Cc2ccccn2)n1CCOC	-5.34
Cc1ncsc1C(=O)N(C)Cc1cccc(Cl)c1	9.51
CNc1oc(COc2ccc3c(c2)OCO3)nc1C#N	-19.3
Cc1ccc(CN2CCOC3(CCCN(c4cccc(F)c4)C3)C2)o1 (configuration not stated)	-6.42
Cc1csc(C2CCCCN2C(=O)c2cc(C3CC3)[nH]n2)n1 (configuration not stated)	-2.5
c1cc(CN2CCC(c3ccc4c(c3)OCO4)CC2)ccn1	-1.06
Cc1nn(C)c2c(=O)n(CC(=O)NCc3ccccc3Cl)ccc12	8.11
CC(C)N(Cc1cccnc1)C(=O)CCSc1ccc(C#N)cc1	5.31
Cc1nn(C)c2nc(N3CCCCC3c3nccs3)sc12 (configuration not stated)	5.1
Cc1ccc(C(=O)N2CCN(S(C)(=O)=O)CC2)cc1N1CCNC1=O	-1.5
COCCNC(=O)[C@@H]1CCO[C@@H]2CCN(Cc3cnn(C)c3)C[C@@H]21	-11.1
Cc1cnc(CN2CCCC(c3cc(C(N)=O)[nH]n3)C2)o1 (configuration not stated)	9.27
O=C(O)[C@@H]1CN(Cc2ccc(-c3cc[nH]n3)s2)C[C@H]1C1CC1	-4.26
O=C(C1CCOCC1)N1CC[C@H]2[C@H]1CCN2c1nncs1	-0.658

Compound	cytotoxicity at 70.5 h [%]
COC(=O)CC(c1cccnc1)c1oc(C)cc(=O)c1O (configuration not stated)	-16.7
Cn1c2c(c(=O)n1C)CN(S(=O)(=O)c1cccs1)CCC2	-5.01
Cc1cc(NCc2cc3n(n2)CCCN(C(=O)C2CCC2)C3)ncn1	0.388
COc1ccc(C#N)cc1CSCCN1CCOCC1	-9.88
Cc1ccc(C(=O)N2CCCC(CNS(C)(=O)=O)C2)o1 (configuration not stated)	-7.3
O=C1CC(c2ccc(C(=O)O)cc2)c2ncn(-c3ccccc3Cl)c2N1 (configuration not stated)	-12.6
Cc1ccc(CCNC(=O)Nc2cc(C(F)(F)F)c[nH]c2=O)o1	-4.56
CCn1cc(CN2CCCN(C(=O)c3ccc(C#N)cc3)CC2)cn1	-4.62
Cn1cc(CN2C[C@H]3CN(c4cncnc4)C(=O)[C@H]3C2)cn1	-2.54
COc1ccc(S(=O)(=O)NCCn2cnc(C)cc2=O)cc1C	-9.08
COc1ccc(CNCc2ccnc(N3CCOCC3)c2)c(OC)c1	-10.2
CCc1nc(CC(=O)N2CCn3c(nnc3C(F)(F)F)C2)cs1	-7.01
CC(C)(C)OC(=O)N1CC(=O)N(Cc2ccco2)CC(O)C1 (configuration not stated)	-7.3
COc1cccc(C2=CCN(CCN3CCCC3=O)CC2)c1	-7.88
Cc1ccc(CC(NC(=O)CCS(C)(=O)=O)c2ccccn2)cc1 (configuration not stated)	0.0206
c1coc(-c2[nH]c3ncccc3c2CN2CCCOCC2)c1	-4.25
O=C(NCCn1ccnc1)N1CCN(Cc2ccsc2)CC1	9.21
OCCOc1nc(-c2ccccc2Cl)no1	-1.34
c1coc(-c2nc(CNCCn3cccn3)cs2)c1	-5.85
CNC(=O)c1cccnc1NCc1ccc(Cn2ccnc2)cc1	34.2
Cc1nn(C)cc1CNC(=O)c1cn(CCC2CCCCN2)nn1 (configuration not stated)	-8.92
Cc1nnc2n1CCN(C(=O)c1cc(Cl)c(Cl)n1C)C2	-3.86
CC1CN(C(=O)NCc2cnn(-c3ccc(F)cc3F)c2)CCO1 (configuration not stated)	-11.2

Compound	cytotoxicity at 70.5 h [%]
O=C(N1CCCC1)N1Cc2nccn2CC(CN2CCCC2)C1 (configuration not stated)	-8.56
Cn1cccc1C(=O)NC1(C(=O)NCC2CC2)CCCC1	-11.4
Cc1[nH]ccc1C(=O)N1CCC2(CC1)c1nc[nH]c1CCN2CC(C)C	-8.19
Cc1nn(C)c2ncc(S(=O)(=O)N3CCCC(C(N)=O)C3)cc12 (configuration not stated)	-6.46
CCn1cc(NC(=O)NCc2ccc3c(c2)OCO3)cn1	-1.53
Cc1nc(Nc2cnccn2)cc(C2CCCN2C2CCOCC2)n1 (configuration not stated)	-5.63
C[C@H]1C(=O)NC[C@H]2CN(Cc3cccc(F)c3)C[C@H]21	-8.78
Cc1ccc(NC(=O)CCc2cnn(C)c2)cc1F	-8.37
Cc1noc(NCc2cc(F)ccc2F)n1	-3.22
CCc1ccc(C(C)NC(=O)c2ccc(CS(C)(=O)=O)o2)cc1 (configuration not stated)	-4.79
COc1ccc(OC)c(CCNC(=O)NC(C)Cn2ccnc2)c1 (configuration not stated)	22
CC(c1ccon1)N(C)S(=O)(=O)NCc1ccccc1 (configuration not stated)	-2.95
CCn1cc(CN2CCN(Cc3cccc(OC)c3)C(=O)C2)cc1C#N	-1.17
Cc1c(C(=O)OCC2CC(=O)N(c3ccccc3)C2)cnn1C(C)C (configuration not stated)	-0.00833
O=C1CCCc2occ(C(=O)N3CCCC4(CCNC4)C3)c21 (configuration not stated)	-7.04
COc1cc(N2CC[C@@H]3O[C@H](C(=O)NCC4CC4)C[C@@H]32)ncn1	16.5
CC(=O)c1cccc(S(=O)(=O)NCC(C)(O)c2cccs2)c1 (configuration not stated)	-7.85
CCCNc1ccc(C(=O)NCCc2cccc(OC)c2)cn1	-3.99
CC1CCN(C(=O)c2cn(-c3cc(N4CCSCC4)ncn3)cn2)CC1	3.74
CN1CCC2(COCCN(Cc3cccc(C#N)c3)C2)C1 (configuration not stated)	-0.504
